We go through eight compounds from patent US8642793B1, “Biosurfactant produced by Aureobasidium pullulans” (Gyeongbuk Institute for Marine Bio-industry, priority 2012, dated 2014).

Series [1] is described as follows: Measurement of surface tension with a surface tension meter (Sigma 700, KSV Instruments). Format: physicochemical. The procedure: Compound L9 isolated in Example 1 was dropped on a hydrophobic film, and surface tension variation was observed using a surface tension meter (Densitometer, Sigma 700 Densitometer (KSV Instruments Ltd., Finland)). Water was a control, and a culture medium and the size of compound L9 were compared. The numerical value of the surface tension was shown as (dyne/cm (or mN/m)). When a surfactant that has a hydrophobic moiety and a hydrophilic moiety is added to water, surface tension decreases. […] As the intermolecular interaction increases, the surface tension increases. Surface tensions of Compound L9 and known materials produced by bacteria (Table 2) and yeasts (Table 3) were measured, and the results are shown in Tables 2 and 3 below.

The conditions of series [2]: reference liquids of Table 1, no amount given; cited from earlier work.

Where two headings read alike, the source gives them in different places.

In series [1] (amount of material 25 mg/L), Trehalos lipid registered a Surface tension of 24.1 dyne/cm.

In turn, Flavolipid came in with a Surface tension in series [1] (amount of material 300 mg/L) of 26.0 dyne/cm. Rhamnolipid registered a Surface tension in series [1] (amount of material 30 mg/L) of 31.4 dyne/cm. Take `CCCCC[C@@H](O)C[C@@H](O)CC(=O)O[C@H](CCCCC)C[C@@H](O)CC(=O)O[C@H](CCCCC)C[C@@H](O)CC(=O)OCC(O)CO` (stereo partly shown) [Compound L9]: the Surface tension in series [1] (amount of material 1.5 mg/L) was found to be 31.5 dyne/cm; in series [1] (at 1.5 mg/litter), 31.5 mN/m. Besides, the “degree of activity (surface tension)” value in series [1] (summary statement, no amount given) came to 31 dyne/cm. As for Sophorolipid, in series [1] (amount of material 40 mg/L), the Surface tension is on record as 35.0 dyne/cm. Iturin displayed a Surface tension in series [1] (amount of material 20 mg/L) of 43.0 dyne/cm. Turning to Trehalose lipid, the Surface tension in series [1] (amount of material 0.7 mg/L) stood at 43.0 dyne/cm. For `OCC(O)CO` [Glycerin], the Surface tension in series [2] is given as 63 dyne/cm.
